{"source": "patent US11510407B2", "about": "“Compositions and methods for reducing ice crystal formation” (X-THERMA, INC., priority 2015, dated 2022)", "key": {"[1]": {"experiment": "Crystallographic x-ray diffraction (XRD) ice crystal formation assay", "format": "physicochemical", "details": "for reduction of necessary EG concentration while preventing ice formation (ice ring scores, FIG. 3D): 1 and 5 mg/mL compound, EG 15% to 30% (v/v)", "experimental": "In order to increase the throughput of library analysis, a crystallographic x-ray diffraction (XRD) technique was used to evaluate ice crystal formation. For these experiments, the compounds named “Compound 2,” “Compound 8,” “Compound 10,” “Compound 11,” “Compound 12,” “Compound 13,” and “Compound 58” were tested. Compound 58 is similar to Compound 12, except that an arginine amino acid has been appended to the N-terminal end.\nFor these experiments, EG concentrations between 15% and 30% (v/v) were used. Typically, EG, DMSO, and other cryoprotectants are used during XRD sample analysis at concentrations of 35-40% (v/v) to vitrify solutions and avoid diffraction interference from ice crystals. Concentrations of 1 and 5 mg/mL of the peptoid and peptoid-peptide compounds were used. […] FIG. 3D provides ice rings scores for a variety of EG concentrations and two concentrations of Compounds 2, 8, and 12.\n“IceRing1” and “IceRing2” refer to ice formation scores, which range between 0 (no ice formation) and 15 (large ice formation).\nThe sample containing Compound 12 at a concentration of 5 mg/mL (0.5% (w/v)) and EG at a concentration of 17.5% (v/v) in water was ice-free after flash freezing. […] In the figures, black spots and rings represent ice crystals."}, "[2]": {"details": "160 mM ethylene glycol in MilliQ water, slow cooled, −20° C., one hour", "experimental": "In this experiment, four water-based samples were prepared in capillary tubes containing MilliQ purified water. One sample contained only water, and another sample contained 160 mM ethylene glycol (EG). The other two samples each contained a peptoid polymer at 9 mM. One of the peptoid polymer samples contained the peptoid polymer called “Compound 1,” while the other sample contained the peptoid polymer called “Compound 10.” The sequences of the peptoid polymers are as follows:\nAfter sample preparation, all samples were slow cooled and incubated at −20° C. on a Peltier cooled plate. After one hour, samples were removed and immediately photographed using a digital camera attached to a 180× Stereo Zoom microscope (FIG. 2A)."}, "[3]": {"experiment": "Larger volume flash freeze / rewarm / −20° C. storage assay", "format": "physicochemical", "experimental": "In order to test the usefulness of compositions of the present invention at larger scales, experiments were performed using solution volumes that are similar to volumes used for standard egg and stem cell preservation. For these experiments, two samples, one containing 22.5% EG and buffer only, and another containing 22.5% EG and 5 mg/ml (0.5% w/v) of Compound 12 and buffer, were flash frozen in liquid nitrogen. […] The rewarming of the solutions in a 37° C. water bath led to an unexpected and beneficial result. The Compound 12 solution bypassed devitrification in less than 2 seconds upon rewarming (FIG. 6B, right), whereas chunks of ice were seen floating in the control sample (FIG. 6B, left) after 20 seconds. Condensation was seen on each of the tubes because the tubes were actually still much below room temperature."}, "HEK 293 cell line": {"system": "HEK 293 cell line", "experiment": "Cytotoxicity assay (MTT)", "format": "cell-based, human", "experimental": "A Tecan Genesis Robotic Workstation was used to prepare solutions in 96- and 384-well plates. Solutions contained culture media, buffers, a cryoprotectant composition of the present invention (Compound 12) or DMSO. Solutions were adjusted to the desired pH. Serial dilutions were performed to obtain solutions containing various concentrations of Compound 12 and DMSO. Control experiments were performed using only culture media.\nFor these experiments, cells were seeded at low density (i.e., 10% confluence), exposed to solutions containing Compound 12 or DMSO, and placed in a 37° C. incubator. The cells were allowed to grow until control cells that were treated only with empty vehicle approached 70% confluence (typically about 3 to 5 days). Assessment for compound cytotoxicity was via MTT assay."}, "HEK 293 cells": {"system": "HEK 293 cells", "experiment": "Cryopreservation assay (flash freeze-thaw, Calcein AM viability)", "format": "cell-based, human", "experimental": "Initial cryopreservation assays were performed using very simple solutions, with and without the addition of Compound 12, in order to minimize confounding outside factors. For this first set of experiments, two sample solutions were prepared. The first sample solution contained simple buffer and ethylene glycol (EG) at a concentration of 22.5% (v/v), and the second sample solution contained simple buffer, EG (22.5% (v/v)), and 5 mg/mL (0.5% (w/v)) of Compound 12.\nHEK 293 cells were grown until 70% confluent, then treated with trypsin to remove adhesion proteins and yield free floating cells. Cells were counted using a hemocytometer and sample cell concentrations were adjusted to final concentrations of 10,000 cells per microliter. Cells were then compressed into tight pellets by centrifugation, and each sample was subsequently mixed with 20 μL of one of the sample solutions. Samples were then flash frozen by immersion in liquid nitrogen, followed by rewarming in a 37° C. water bath. After the freeze-thaw process, cells were suspended in a 400× volume of culture media for recovery. The positive control sample was treated with culture media at 37° C. and not subjected to the freeze-thaw process. The negative control sample was treated with culture media only during the freeze-thaw process. After recovery, cells were stained with Calcein AM for 30 minutes and cell viability was measured using a fluorescence plate reader.\nA second set of experiments was performed to evaluate the cryopreservation potential of a formulation that contained 5 mg/mL of Compound 12 plus a mixture of glycols, disaccharides, and a general buffer. Post-thaw survival following vitrification in liquid nitrogen was evaluated as described above."}, "[4]": {"details": "buffer + EG 22.5% (v/v) + 5 mg/mL Compound 12 with HEK 293 cells"}}, "note": "“Also recorded” adds a separate entry of the source.", "data": [{"smiles": "CCC(C)NCC(=O)N(CC(=O)N(CC(=O)N(CC(=O)N(CC(=O)N(CC(=O)N(CC(=O)N(CC(=O)N(CC(=O)N(CC(N)=O)CC(C)O)C(C)CC)C(C)CC)C(C)CC)CC(C)O)CC(C)O)CC(C)O)C(C)CC)C(C)CC", "note": "(stereo not drawn) [Compound 2, Nsb-Nsb-Nsb-Nhp-Nhp-Nhp-Nsb-Nsb-Nsb-Nhp]", "values": [{"measurement": "reduction of necessary EG concentration while preventing ice formation (ice ring scores, FIG. 3D)", "setting": "[1]", "value": "significantly reduced necessary EG concentrations while preventing ice formation"}]}, {"smiles": "OCCO", "note": "[EG, ethylene glycol, reference compound]", "values": [{"measurement": "ice crystal formation", "setting": "[2]", "value": "significant ice crystal formation"}, {"measurement": "ice formation after flash freezing (XRD, FIG. 3B)", "setting": "[1]; 30% (v/v) EG alone", "value": "partial vitrification with the presence of cubic ice"}]}, {"smiles": "CCC(C)NCC(=O)N(CC(=O)N(CC(=O)N(CC(=O)N(CC(=O)N(CC(=O)N(CC(=O)N(CC(=O)N(CC(=O)N(CC(N)=O)C(C)CC)C(C)CC)CC(C)O)CC(C)O)C(C)CC)C(C)CC)CC(C)O)CC(C)O)C(C)CC", "note": "(stereo not drawn) [Compound 12, Nsb-Nsb-Nhp-Nhp-Nsb-Nsb-Nhp-Nhp-Nsb-Nsb]", "values": [{"measurement": "reduction of necessary EG concentration while preventing ice formation (ice ring scores, FIG. 3D)", "setting": "[1]", "value": "significantly reduced necessary EG concentrations while preventing ice formation"}, {"measurement": "ice formation after flash freezing (XRD, FIG. 3A)", "setting": "[1]; Compound 12 5 mg/mL (0.5% (w/v)) + EG 17.5% (v/v) in water, stream of liquid nitrogen vapor", "value": "complete vitrification; also recorded: ice-free; also recorded: completely eliminate all ice formation"}, {"measurement": "anti-icing effect in comparison to EG at the same molar concentration", "setting": "[1]; Compound 12 5 mg/mL + EG 17.5% (v/v)", "value": 500, "unit": "times"}, {"measurement": "vitrification / ice formation on flash freezing in liquid nitrogen", "setting": "[3]; 22.5% EG + 5 mg/ml (0.5% w/v) Compound 12 + buffer, −196° C.", "value": "complete vitrification with no ice formation; also recorded: able to vitrify; also recorded: vitrified"}, {"measurement": "time to bypass devitrification upon rewarming", "setting": "[3]; 22.5% EG + 5 mg/ml Compound 12, 37° C. water bath", "value": "less than 2 seconds"}, {"measurement": "state after overnight in −20° C. freezer", "setting": "[3]; 22.5% EG + 5 mg/ml Compound 12, 100 μL samples", "value": "completely unfrozen; also recorded: remained unfrozen"}, {"measurement": "behaviour during rewarming / thawing", "setting": "[3]; 22.5% EG + 5 mg/ml Compound 12, rewarming at 37° C.", "value": "active de-icer during thawing; also recorded: unfroze (within two seconds)"}, {"measurement": "toxicity (MTT assay)", "setting": "HEK 293 cell line; HEK 293, at 0.5% w/v", "value": "did not show toxicity"}, {"measurement": "toxicity (MTT assay)", "setting": "HEK 293 cell line; HEK 293, at concentrations four times greater than 0.5% w/v", "value": "did not show significant toxicity"}, {"measurement": "toxicity compared with culture media alone (MTT assay)", "setting": "HEK 293 cell line; HEK 293, serial dilutions, 37° C., about 3 to 5 days", "value": "did not significantly deviate from the that of culture media alone"}, {"measurement": "cell survival after freeze-thaw versus EG alone (FIG. 8)", "setting": "HEK 293 cells; HEK 293, buffer + EG 22.5% (v/v) + 5 mg/mL Compound 12, liquid nitrogen, viability 12 hours post-thaw", "value": "greatly improved cell survival"}, {"measurement": "cryopreservation compared to VS2E and M22", "setting": "HEK 293 cells; HEK 293, formulation containing 5 mg/mL Compound 12", "value": "superior cryopreservation"}, {"measurement": "post-thaw survival of the cells", "setting": "HEK 293 cells; HEK 293, formulation with 5 mg/mL Compound 12 plus mixture of glycols, disaccharides, general buffer, vitrified in liquid nitrogen, 16 hours post-thaw", "value": 98, "unit": "%"}, {"measurement": "devitrification on rewarming compared to sample lacking Compound 12", "setting": "HEK 293 cells; [4]", "value": "bypassed much more rapidly"}, {"measurement": "vitrification during the freezing process", "setting": "HEK 293 cells; [4]", "value": "complete vitrification without ice formation"}]}, {"smiles": "CCC(C)NCC(=O)N(CC(=O)N(CC(=O)N(CC(=O)N(CC(=O)N(CC(=O)N(CC(=O)N(CC(=O)N(CC(=O)N(CC(N)=O)CC(C)O)CC(C)O)CC(C)O)C(C)CC)CC(C)O)CC(C)O)CC(C)O)CC(C)O)CC(C)O", "note": "(stereo not drawn) [Compound 8, Nsb-Nhp-Nhp-Nhp-Nhp-Nhp-Nsb-Nhp-Nhp-Nhp]", "values": [{"measurement": "reduction of necessary EG concentration while preventing ice formation (ice ring scores, FIG. 3D)", "setting": "[1]", "value": "significantly reduced necessary EG concentrations while preventing ice formation"}]}, {"smiles": "C[S+](C)[O-]", "note": "[DMSO, dimethyl sulfoxide, reference compound]", "values": [{"measurement": "concentration above which warm survival for an extended period of time was not allowed", "setting": "HEK 293 cell line; HEK 293, MTT assay", "value": "above 0.5 % (v/v)"}]}]}
